Reference: US12275685B2, “Oligo-benzamide analogs and their use in cancer treatment” (Board of Regents, The University of Texas System, priority 2018, dated 2025)

How the values were obtained:
ZR-75 MT-ERα cells = test: Colony formation, ZR-75 MT-ERα; type: cell-based
Description: The 200 nM dose for these drugs reflects the level at which each of these drugs has a significant effect on spheroid formation in the MCF-7 WT-ERa cells. Taken together, these studies indicate that TX-542 has significant activity against both WT-ERα and MT-ERα driven ERα+ BC cell lines and is a worthwhile candidate for further study.

MCF-7 MT-ERα Y537S cells = type: cell-based; details: 200 nM
[1] = tested on: MCF-7 MT-ERα Y537S and D538G cells; type: cell-based; details: comparators at 200 nM in MCF-7 MT-ERα Y537S cells
[2] = tested on: BC cells expressing MT-ERα (MCF-7, ZR-75, T47-D); test: Cell titer glo antiproliferative assay in MT-ERα BC cells; type: cell-based; details: T47-D Y537S MT
From the text: FIG. 52: Comparative efficacy of TX-542 and SERDs in BC cells expressing WT and/or MT ERα: Using CRISPR-Cas9, both copies of WT ERα genes were knocked out in ZR-75 and T47-D, while only one copy of WT Era was knocked out in MCF-7 cells. Following knockout of WT ERα clones with stable expression of either Y537S ERα MT or the D538G ERα MT were selected. […] ERα-negative TNBC cells (SUM-159 and MDA-MB-231) were used as controls. Dose response curves were generated for ERX-11, TX-542 and SERDs using cell titer glo assays. IC50 values for each cell line and drug were calculated and tabulated. Tam=tamoxifen, ICI=fulvestrant, GDC-0810=Genentech SERD, AZD-9496 Astra Zeneca SERD, RAD-1901=Radius SERD, Palbo=Palbociclib. IC50 values<50 nM are shown in red.
TX-542. TX-542 was potent (IC50˜20-50 nM) as an antiproliferative agent against expressing MT-ERα, both in genetically modified MCF-7 cells with one WT-ERα allele and one MT-ERα allele introduced by CRISPR and genetically modified ZR-75 or T47-D cells in which both copies of WT-ERα alleles were replaced using CRISPR with MT-ERα. TX-542 had no activity against ER-null (SUM-159 or MDA-MB-231 cells) or non-tumorigenic breast epithelial cells, such as human mammary epithelial cells (HMEC). […] In addition, these agents are not able to consistently target all the MT-ERα forms in distinct genetic contexts, as shown in FIG. 52 and as reported by others.

OCa cells = test: MTT assay in OCa cells; type: cell-based
Description: FIGS. 12A-12D show the effect of TK208 against ovarian cancer cell lines ES2 (FIGS. 12A & 12B) and SKOV3 (FIGS. 12C & 12D).
FIGS. 42A-D: OCa cells were treated with ERX-11 (FIG. 42A) or ERX-208 (FIG. 42B). Primary OCa cells derived from ascites were treated with ERX-208 for 72 h (FIG. 42C) and cell viability by MTT assays. (FIG. 42D) Effect of ERX-208 on viability of IOSE cells was measured using MTT assays and TOV21G was used as +ve control.
ERX-208. […] Functionally, ERX-208 causes growth inhibition of OCa cells, as noted by MTT assays using five established OCa cells (ES2, SKOV3, A2780, TOV21G, TOV112D) and five primary OCa cells derived from HGSOC patient ascites (AS21, AS23, AS25, AS28, AS29) (FIGS. 42B-C). […] The inventor noted an IC50 of ˜50-100 nM for ERX-208 both for inducing ERS and in reducing the growth of OCa cells.

MT-ERα [3] = test: MT-ERα protein levels; type: cell-based
ovarian cancer cells = test: Growth inhibition of ovarian cancer cells; type: cell-based
From the text: FIGS. 10A & 10B show effects of TK208 against cancer cells.
(§1) In addition, another tris-benzmaide compound TK208 was synthesized and tested against breast cancer and ovarian cancer cell lines (FIGS. 10-15). […] These compounds (e.g., TK41, TK208, TK308 (FIG. 21), TK309 (FIG. 22), TK314, TK315) are extremely potent compounds that inhibit tumor growth and kill breast and ovarian cancer cells and as such, they are superb therapeutic candidates for such diseases.

[4] = tested on: WT- and MT-ERα-driven cell lines (MCF-7, ZR-75); test: Anti-proliferative activity in WT- and MT-ERα-driven cell lines; type: cell-based
breast cancer cells = test: Growth inhibition of breast cancer cells; type: cell-based; details: relative to ovarian cancer cells
From the text: as §1

MT-ERα [5] = test: RNA sequencing of MT-ERα transcriptional programme; type: cell-based; details: MCF-7 and ZR-75 cells expressing D538G and Y537S MT-ERα
From the text: FIGS. 66A-D: (FIG. 66A) Effect of ERX-315 on ERa DNA binding on the promoters of 5 canonical ERα-regulated genes with ERa ChIP in MCF-7 expressing D538G MT-ERα in the absence and presence of estradiol.
Prior studies have shown that MT-ERα drives a canonical ERα transcriptional programme, both in the absence and presence of estradiol. RNA sequencing studies indicate that ERX-315 alters the transcriptional heatmap in MCF-7 and ZR-75 cells expressing D538G and Y537S MT-ERα (FIG. 66B, data shown for MCF-7 cells expressing D538G MT-ERα).

vitamin D receptor (VDR) = biological target: T1, vitamin D receptor (VDR) (Homo sapiens, UniProt P11473); test: Vitamin D receptor inhibition; type: cell-based
T1 construct: endogenous in cells; host or cells: cancer cells
T1 sequence (P11473 whole entry): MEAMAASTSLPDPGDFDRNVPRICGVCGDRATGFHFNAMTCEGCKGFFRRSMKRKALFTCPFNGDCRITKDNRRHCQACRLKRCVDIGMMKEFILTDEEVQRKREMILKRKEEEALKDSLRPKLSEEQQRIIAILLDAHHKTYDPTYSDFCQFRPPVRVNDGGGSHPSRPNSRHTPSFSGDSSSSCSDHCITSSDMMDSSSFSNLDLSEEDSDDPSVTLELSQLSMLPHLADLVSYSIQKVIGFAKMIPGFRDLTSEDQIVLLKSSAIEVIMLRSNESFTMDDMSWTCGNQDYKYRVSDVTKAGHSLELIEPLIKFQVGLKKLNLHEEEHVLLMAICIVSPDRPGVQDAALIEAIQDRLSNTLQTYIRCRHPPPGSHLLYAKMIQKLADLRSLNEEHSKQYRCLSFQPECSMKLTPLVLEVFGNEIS

lipase activity of LIPA = biological target: T2, lipase activity of LIPA (Homo sapiens, UniProt P38571); test: Lipase activity assay; type: biochemical; details: SUM-159 cells
T2 construct: lipase activity of parental SUM-159 (WT) and SUM-159 cells with LIPA KO; endogenous in cells; host or cells: SUM-159 (parental)
T2 sequence (P38571 77-399): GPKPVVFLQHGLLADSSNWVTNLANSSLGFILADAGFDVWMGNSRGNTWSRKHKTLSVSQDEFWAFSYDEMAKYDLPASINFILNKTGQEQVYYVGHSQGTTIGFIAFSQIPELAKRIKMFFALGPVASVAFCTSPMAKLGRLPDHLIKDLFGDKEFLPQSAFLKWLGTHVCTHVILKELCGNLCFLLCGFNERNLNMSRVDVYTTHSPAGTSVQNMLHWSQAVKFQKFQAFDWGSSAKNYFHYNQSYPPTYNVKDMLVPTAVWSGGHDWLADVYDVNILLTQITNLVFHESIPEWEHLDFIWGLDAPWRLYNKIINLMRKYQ
From the text: FIGS. 39A-N: (FIGS. 39A-E) Predicted binding mode of ERX-41 (colored in green) on the human lysosomal acid lipase (LAL, PDB code: 6V7N, LXXLL (SEQ ID NO: 1) domain colored in orange). (FIG. 39F) PDB structure of LAL protein showing relative positions of the catalytic domain (with H274Y MT) and the LXXLL (SEQ ID NO: 1) domain (L242P MT). (FIG. 39G) Evaluation of the effect of ERX-41 and lalistat (known lipase inhibitor) on lipase activity of parental SUM-159 (WT) and SUM-159 cells with LIPA KO. (FIG. 39H) Evaluation of basal lipase activity in parental SUM-159 (WT), SUM-159 cells with LIPA KO (KO), SUM-159 cells with LIPA KO and with reconstitution of either WT LIPA (KO+WT), H274Y MT-LIPA (KO+H274Y), DLXXLL (SEQ ID NO: 2) MT-LIPA (KO+DLXXLL (SEQ ID NO: 2)) or L242P MT-LIPA (KO+L242P). Protein expression of LAL and control vinculin in these cells are shown below (FIG. 391) Cellular lysates from described SUM-159 cells were incubated with biotinylated ERX-11 or biotinylated ERX-41 and then subject to a streptavidin column. Elutants were then evaluated for LIPA pulldown by western blotting. (FIG. 39J) Dose response curve to increasing concentrations of ERX-41 in described SUM-159 cells. (FIGS. 39K-M) Effect of vehicle or 1 μM ERX-41 on induction of UPR genes at the protein level (FIG. 39K) or RNA level (FIGS. 39L-M). […]

## C[C@@H]1Cc2c([nH]c3ccccc23)[C@@H](c2c(F)cc(/C=C/C(=O)O)cc2F)N1CC(C)(C)F [AZD-9496]
ZR-75 MT-ERα cells
  colony formation in ZR-75 MT-ERα cells: activity was not seen
MCF-7 MT-ERα Y537S cells
  soft agar colony formation: significantly affected colony formation
[1]
  spheroid size or architecture: neither ERX-11, palbociclib, GDC-0810 nor AZD-9496, tamoxifen nor fulvestrant (at 200 nM) significantly disrupted spheroid size or architecture
[2]
  activity against T47-D Y537S MT: potent activity

## CC(C)COc1cc(C(N)=O)ccc1NC(=O)c1ccc(NC(=O)c2ccc([N+](=O)[O-])c(OCCO)c2)c(OCC(C)C)c1 [ERX-11, reference compound]
MCF-7 MT-ERα Y537S cells
  soft agar colony formation: neither the parental ERX-11, tamoxifen nor GDC0810 SERD (at the same concentrations) had an effect on colony formation
OCa cells
  activity against OCa cells / cell viability: limited activity
[1]
  spheroid size or architecture: neither ERX-11, palbociclib, GDC-0810 nor AZD-9496, tamoxifen nor fulvestrant (at 200 nM) significantly disrupted spheroid size or architecture

## CC/C(=C(/c1ccc(/C=C/C(=O)O)cc1)c1ccc2[nH]ncc2c1)c1ccc(F)cc1Cl [GDC-0810]
MT-ERα [3]
  ability to decrease MT-ERα protein levels: neither fulvestrant nor GDC-0810 were able to decrease MT-ERα protein levels
MCF-7 MT-ERα Y537S cells
  soft agar colony formation: neither the parental ERX-11, tamoxifen nor GDC0810 SERD (at the same concentrations) had an effect on colony formation
[1]
  spheroid size or architecture: neither ERX-11, palbociclib, GDC-0810 nor AZD-9496, tamoxifen nor fulvestrant (at 200 nM) significantly disrupted spheroid size or architecture

## CC(C)COc1cc(C(=O)Nc2ccc(C(=O)N[C@H]3CC[C@H](C)CC3)cc2OCC(C)C)ccc1NC(=O)c1ccc(F)c(OCCO)c1 [TK314]
Ovarian cancer cells
  IC50: 10 to 50 nM
  activity against ovarian cancer cells: unique activity against ovarian cancer cells
[4]
  IC50: 1500 to 5000 nM
Breast cancer cells
  activity against breast cancer cells: significantly less activity against breast cancer cells
MT-ERα [5]
  MT-ERα transcriptional programme: neither tamoxifen nor ERX-314 is able to alter the ERα-regulated transcriptome

## CC(C)COc1cc(C(=O)Nc2ncc[nH]2)ccc1NC(=O)c1ccc(NC(=O)c2ccc([N+](=O)[O-])c(OCCO)c2)c(OCC(C)C)c1 [YL144]
Vitamin D receptor (VDR)
  inhibition of VDR: high potency

## O=C(Oc1nsnc1N1CCCCC1)N1CCCCC1 [lalistat, reference compound]
Lipase activity of LIPA
  effect on lipase activity of LIPA: attenuated lipase activity

## CC/C(=C(\c1ccccc1)c1ccc(OCCN(C)C)cc1)c1ccccc1 [tamoxifen]
MT-ERα [5]
  MT-ERα transcriptional programme: neither tamoxifen nor ERX-314 is able to alter the ERα-regulated transcriptome
MCF-7 MT-ERα Y537S cells
  soft agar colony formation: neither the parental ERX-11, tamoxifen nor GDC0810 SERD (at the same concentrations) had an effect on colony formation
[1]
  spheroid size or architecture: neither ERX-11, palbociclib, GDC-0810 nor AZD-9496, tamoxifen nor fulvestrant (at 200 nM) significantly disrupted spheroid size or architecture
